PubChem BioAssay (NCI)
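Each compound was tested at five concentrations against cells in 96-well plates for 48 hours. At the GI50, growth is halved. TGI denotes the concentration required for complete inhibition of growth.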

Key:
Test in all cases: NCI-60 cell line screen, 48 h
BT-549 breast = test system: BT-549 breast
DU-145 prostate = test system: DU-145 prostate
NCI-H226 lung = test system: NCI-H226 lung
OVCAR-3 ovarian = test system: OVCAR-3 ovarian
OVCAR-5 ovarian = test system: OVCAR-5 ovarian
SF-295 CNS = test system: SF-295 CNS
SNB-19 CNS = test system: SNB-19 CNS
U251 CNS = test system: U251 CNS
HL-60(TB) leukemia = test system: HL-60(TB) leukemia
SF-539 CNS = test system: SF-539 CNS

Structure (SMILES)	TGI (BT-549 breast) [µM]	TGI (DU-145 prostate) [µM]	TGI (NCI-H226 lung) [µM]	TGI (OVCAR-3 ovarian) [µM]	TGI (OVCAR-5 ovarian) [µM]	TGI (SF-295 CNS) [µM]	TGI (SNB-19 CNS) [µM]	TGI (U251 CNS) [µM]	GI50 (BT-549 breast) [µM]	GI50 (DU-145 prostate) [µM]	GI50 (HL-60(TB) leukemia) [µM]	TGI (HL-60(TB) leukemia) [µM]	GI50 (OVCAR-3 ovarian) [µM]	GI50 (OVCAR-5 ovarian) [µM]	GI50 (SF-295 CNS) [µM]	GI50 (SF-539 CNS) [µM]	TGI (SF-539 CNS) [µM]	GI50 (SNB-19 CNS) [µM]	GI50 (U251 CNS) [µM]	GI50 (NCI-H226 lung) [µM]
COc1ccc2c(c1O)C13CCN(C)C(C2)C1CCC1(C3)OCCO1 (stereo unspecified)	> 100	> 100	> 100	> 100	> 100	> 100	> 100	> 100												
O=C(Nc1ccc(F)cc1)Nc1ccccc1CNc1nc(Nc2ccc(OCCN3CCCC3)cc2)ncc1Cl	11.2	8.06		2.01	6.88	7.67	11.1	3.73	5.15	2.48	1.07	2.31	1.01	1.76	1.97	0.831	1.57	3	1.28	
COc1ccc2c(c1)C(=O)N1CCOC1C2C(=O)O (stereo unspecified)				> 100	> 100	29.8	> 100	> 100				> 100					> 100			
CC(=O)Oc1cc(C)c2c(c1OC(C)=O)CC1(O2)[C@@H](C)CCC2[C@@]3(C)CC[C@H](OC(C)=O)C(C)(C)C3CC[C@]21C (stereo partly specified)			25.6	8.41	17.4	16.2	29.8	14.4									7.23			
N#CC(/C(=N/NC(=O)C(=O)NN)C(=O)Nc1nc([N+](=O)[O-])cs1)c1ccc(Cl)cc1 (stereo unspecified)			> 100	> 100	> 100	> 100	> 100	> 100				> 100								
C#CCN(Cc1nc2cc(C(F)(F)F)ccc2nc1-c1ccccc1)c1ccc(OC(F)(F)F)cc1	> 100	> 100		> 100	> 100	> 100	> 100	> 100	44.9	36.5			49.1	> 100	> 100	20	41.2	> 100	48.8	
CC[O-].CC[O-].O=C([CH-]C(=O)c1cccnc1)c1ccccc1.O=C([CH-]C(=O)c1cccnc1)c1ccccc1.[Ti+4]			> 100	> 100	> 100	> 100	> 100	> 100			27.9	85	> 100	> 100	77.6	43.1	> 100	50	27.2	68.1
O=C(Nc1ccccc1)c1nn(-c2cc(S(=O)(=O)O)c([N+](=O)[O-])cc2Cl)[n+](-c2cc(S(=O)(=O)[O-])c([N+](=O)[O-])cc2Cl)n1		> 100	> 100	> 100	> 100	> 100	> 100	> 100				> 100					> 100			
COc1cc2c3c(n(CCCN(CCN)CCCn4c5c(c6cc(OC)c(OC)cc6c4=O)C(=O)c4cc6c(cc4-5)OCO6)c(=O)c2cc1OC)-c1cc2c(cc1C3=O)OCO2	> 79.3	> 100	2.76	20.7	18.9	6.16	> 100	5.99	5.08	0.663			4.34	3.78	0.36	0.238	0.731	0.741	0.354	0.449
